The subject of assay [1] is HT-29. Briefly: Induction of ROS production in human HT-29 cells assessed as increase in red fluorescence intensity incubated for 48 hrs by DHE fluorescent probe based flow cytometry. The assay is classed as functional, cell-based. (In general: In flow cytometry, cells or beads pass a laser one at a time.)
For assay [2], the system named is HT-29. Nature of the assay: Induction of ferroptosis in human HT-29 cells assessed as increase in mitochondrial membrane density incubated for 48 hrs by transmission electron microscopic analysis. The class given is functional, cell-based.
In assay [3] the test system is HT-29. Briefly: Induction of ferroptosis in human HT-29 cells assessed as increase in intracellular malondialdehyde accumulation incubated for 48 hrs in presence of ROS scavenger NAC. The class given is functional, cell-based.
Assay [4] deals with HT-29. Briefly: Induction of cell cycle arrest in human HT-29 cells assessed as downregulation of Cyclin B1 expression at 0.5 to 4 uM incubated for 48 hrs by Western blotting analysis. As to conditions: dose 0.5-4 µM. The assay is classed as functional, cell-based.
A further assay concerns Cell membrane. Briefly: Induction of mitochondrial membrane potential loss in human HT-29 cells assessed as decrease in orange-red fluorescence incubated for 48 hrs by JC-1 staining based flow cytometry. The class given is cell membranes.
Assay [5] has as its system HT-29. Nature of the assay: Induction of necrosis in human HT-29 cells incubated for 48 hrs by MTT assay. The assay is classed as functional, cell-based. In general terms: Formazan colour is commonly taken as a measure of viable cells.
In assay [6] the test system is HT-29. Nature of the assay: Antiproliferative activity against human HT-29 cells assessed as inhibition of cell growth at 1 to 10 uM incubated for 48 hrs by MTT assay. As to conditions: dose 1-10 µM. The assay is classed as functional, cell-based.
Assay [7] has as its system HT-29. Briefly: Induction of ferroptosis in human HT-29 cells assessed as increase in intracellular lipid peroxidation accumulation incubated for 48 hrs by C11 BODIPY 581/591 staining based flow cytometry. The class given is functional, cell-based.
Assay [8] has as its system HT-29. Briefly: Induction of cell cycle arrest in human HT-29 cells assessed as […] of CDK1 expression at 0.5 to 4 uM incubated for 48 hrs by Western blotting analysis. As to conditions: dose 0.5-4 µM. The class given is functional, cell-based. (A western blot detects proteins with antibodies after separation by electrophoresis.)
The subject of assay [9] is HT-29. Briefly: Induction of ferroptosis in human HT-29 cells assessed as mitochondrial morphological change incubated for 48 hrs in presence of ferroptosis inhibitor deferoxamine by transmission electron microscopic analysis. The assay is classed as functional, cell-based.
For assay [10], the system named is HT-29. Nature of the assay: Induction of ferroptosis in human HT-29 cells assessed as increase in intracellular malondialdehyde accumulation incubated for 48 hrs in presence of ferroptosis inhibitor CPX. The class given is functional, cell-based.
Assay [11] deals with HT-29. Briefly: Induction of autophagy in human HT-29 cells assessed as increase in MDC positive cells incubated for 48 hrs in presence of ROS scavenger NAC by MDC staining based flow cytometric analysis. The class given is functional, cell-based.
Assay [12] deals with HT-29. Briefly: Induction of ferroptosis in human HT-29 cells assessed as increase in intracellular iron level incubated for 48 hrs in presence of ROS scavenger NAC. The class given is functional, cell-based.
The test system of assay [13] is HT-29. Nature of the assay: Induction of ferroptosis in human HT-29 cells assessed as mitochondrial morphological change incubated for 48 hrs by transmission electron microscopic analysis. The assay is classed as functional, cell-based.
The next assay relates to K562. Briefly: Antiproliferative activity against human K562 cells assessed as inhibition of cell growth incubated for 48 hrs by MTT assay. The class given is functional, cell-based. As to conditions: K562, 48 h.
The test system of assay [14] is HT-29. Briefly: Induction of ferroptosis in human HT-29 cells assessed as increase in intracellular iron level incubated for 48 hrs in presence of autophagy inhibitor 3-methyladenine. The class given is functional, cell-based.
In assay [15] the test system is HT-29. Nature of the assay: Induction of cell cycle arrest in human HT-29 cells assessed as accumulation of cells at G2/M phase incubated for 48 hrs by propidium iodide staining based flow cytometric analysis. The assay is classed as functional.
Assay [16] has as its system HT-29. Briefly: Induction of ferroptosis in human HT-29 cells assessed as decrease in intracellular GSH level incubated for 48 hrs in presence of ferroptosis inhibitor CPX. The assay is classed as functional, cell-based.

pIC50: −log10 of the molar value. Activity calls are given as the source filed them. The calls are words filed in the database; no cut-off is given here.

The pIC50 is the IC50 on a negative log10 scale, so that one unit is a factor of ten. `COc1ccc2c(c1)NCCN2C(=O)NCCCl`: the outcome in the assay on HT-29 [1], in the assay with HT-29 [2], in the assay on HT-29 [4], in the assay on HT-29 [5], with HT-29 [6] and with HT-29 [8] was Active. In addition, the outcome in the assay with HT-29 [13] and with HT-29 [14] was Active. Further, the outcome with HT-29 [3], with HT-29 [9], in the assay with HT-29 [10], in the assay with HT-29 [11], in the assay on HT-29 [12] and in the assay with HT-29 [16] was inactive. In addition, the Activity entry in the assay on Cell membrane, in the assay with HT-29 [7] and in the assay with HT-29 [15] was “Dose-Dependent Effect” each time. The pIC50 in the assay on K562 is 5.31.
